Patent US20260022100A1, “NAV1.8 INHIBITOR” (Wuhan Humanwell Innovative Drug Research and Development …, priority 2022, published 2026)

Experiments:
Nav1.8 ion channel = Nav1.8 ion channel (Homo sapiens (Human), UniProt Q9Y5Y9); experiment: Inhibitory activity on Nav1.8 ion channel, whole-cell patch-clamp on HEK293/Nav1.8; type: cell-based; conditions: HEK293/Nav1.8, whole-cell patch clamp, holding -80 mV, 1 μM TTX
Procedure: Reagents were purchased from Sigma (St. Louis, MO) except NaOH and KOH for acid-base titration. The final concentrations of the test compounds were all prepared on the day of the test and then dissolved in an extracellular fluid. The extracellular fluid (mM) was NaCl, 137; KCl, 4; CaCl2), 1.8; MgCl2, 1; HEPES, 10; glucose 10; and pH 7.4 (NaOH titration). All test and control compound solutions contained 1 μM TTX. The intracellular fluid (mM) was: aspartic acid, 140; magnesium chloride, 2; ethylene glycol tetraacetic acid (EGTA), 11; and N-2-hydroxyethylpiperazine-N′-2-ethanesulfonic acid (HEPES), 10. The pH was adjusted to 7.4 with cesium hydroxide.
The test compounds were dissolved in dimethylsulfoxide (DMSO) at a concentration of 9 mM. On the day of the test, the compounds were then dissolved in the extracellular fluid and prepared into the required concentration.
The cells were transferred to a perfusion chamber and perfusion was carried out using the extracellular fluid. The intracellular fluid was thawed on the day of the experiment. The electrodes were produced by pulling with PC-10 (Narishige, Japan). Whole-cell patch-clamp recording was carried out. Noise was filtered at one fifth of the sampling frequency. The intracellular fluid with ¼ length of the electrode tube was added into the electrode, and the electrode was installed on a probe. The required Protocol was set, the interface was adjusted to Membrane test, and Stage was adjusted to Bath. A positive pressure was applied in the electrode. The tip of the electrode was contacted with the cell. The three-way valve of the air extractor was adjusted to a three-way state. A negative pressure was then applied to the electrode, so that the electrode and the cell formed a high-resistance seal. Stage was adjusted to Patch, and leak was controlled within −200 pA. A negative pressure was successively applied, so that cell membranes were broken, and a current path was formed. Perfusion was carried out by opening the suction filtration device and the extracellular fluid valve. The cell current was observed, and administration was started when the cell current was stable (at least 3 sweep current curves were overlapped). Administration was performed from low concentration to high concentration. The administration time of each concentration was not less than 2 min, and when the current was stable, the concentration was changed for administration.
For administration of the test samples, perfusion was carried out using a perfusion system utilizing the self gravity. […] During the period, the CV % of all peak current amplitudes should be less than 10% to exclude up and down fluctuations of the initial current. The average of the peak current amplitudes recorded for the last 10 times during the initial recording served as the current peak of the negative control. After the initial current was stable, the test samples were dosed starting from a low concentration until the 10 recorded peak currents were again stable or the peak currents were “constant” after and before administration after continuous administration for 5 min. We defined the following two cases as “stable” or “constant”: 1) if the absolute average of the peak current for 10 consecutive scans exceeded 200 pA and the CV value was less than 10%, 2) or the average of the peak current for 10 consecutive scans was between 200 pA and 50 pA and the CV value was less than 30%. The next detection of higher concentration was then given.
The average of the peak current of the last 10 scans of each concentration was taken as the peak current for that concentration for data analysis. If the stable state was not reached within 5 min, the peak current average of the last 10 scans at that time was used for data analysis as the peak current for that concentration. At the same time, the cells were discarded and no longer used for detection of higher concentration. At least two cells were tested per concentration of the compounds. […]

incision pain model rats = experiment: Incision pain model in rats (Von-Frey mechanical pain threshold); type: in vivo, male SD rat; conditions: for Mechanical pain threshold (Mean ± SD), base value before modeling: baseline before modeling
Procedure: A male SD rat weighing 200-250 g was fixed in a prone position after anesthesia. The lateral hind limb sole of the rat was flattened upwards, and the toes were fixed using an operation adhesive tape. Sterilization was performed. A 0.5 cm position of the plantar heel of the animal was incised with a scalpel towards the toe end to incise the fascia and the skin to make a longitudinal incision of about 1 cm. After the flexor digitorum brevis was lifted by the surgical forceps, the abdomen of the muscle was longitudinally incised with a scalpel without completely cutting off the muscle. The skin was sutured and disinfected. On the second day of modeling, the animals were divided into different groups, 8 animals each group. Different compounds were separately orally administered intragastrically. Mechanical pain thresholds of the animals were detected with Von-Frey fiber filaments at different time points after administration. The specific grouping administration dose and detection time are detailed in Table 4 below.
(§1) The mechanical pain threshold detection method: The pelma of the hind limb to be tested of the test animal was continuously stimulated using the Von-Frey fiber filament to bend the fiber filament, and the foot shrinking reaction of the animal was observed. The tested animals were stimulated one by one according to the sequence of the gram number of the fiber filaments from small to large, and each gram number of the fiber filament was continuously used for stimulation for 5 times. If less than 3 positive reactions were present, the procedure described above was repeated using a larger grade of fiber filament, and if 3 or more positive reactions were present for the first time in the test, the fiber filament was the pain threshold for that animal (3 tests per animal for the average). Fiber filament gram number: 0.6, 1.0, 1.4, 2.0, 4.0, 6.0, 8.0, 10.0, and 15.0; the cut value was 15.0 g.

[1] = Pharmacokinetic assay in mice; type: in vivo; conditions: male, ICR, mouse, plasma, oral intragastric administration, 10 mg/kg
Procedure: Pharmacokinetic assay in mice was performed, wherein the mice used were 3 male ICR mice and fasted overnight. The mice were orally intragastrically dosed with the medicament (10 mg/kg). Blood was collected before administration and at 15 min, 30 min and 1 h, 2 h, 4 h, 6 h, 8 h, and 24 h after administration. Blood samples were centrifuged at 8000 rpm for 6 min at 4° C., and plasma was collected and stored at −20° C. The plasma at each time point was taken, and 3-5 times its amount of an acetonitrile solution containing an internal standard was added for mixing. The mixture was vortexed for 1 min and then centrifuged at 13000 rpm at 4° C. for 10 min. The supernatant was taken, and 3 times its amount of water was added for mixing. A proper amount of the resulting mixture was taken for LC-MS/MS analysis. The major pharmacokinetic parameters were analyzed using a non-compartmental model in the WinNonlin 7.0 software.

[2] = test system: spinal nerve-ligated rats; experiment: Spinal nerve ligation neuropathic pain model in rats (Von-Frey mechanical pain threshold); type: in vivo, male SD rat; conditions: SNL rats; for Mechanical pain threshold (Mean ± SD), base value before modeling: baseline before modeling
Description: A male SD rat weighing 180-220 g was placed on an operating table in a prone position after anesthesia. An incision was made along the spinal column near the hip bone of the animal, and the fascia and muscle were separated. The L5 transverse process was carefully snapped off with a tweezer. The L5 nerve was separated with a glass needle, and the L5 nerve was ligated with 5-0 ligature. The muscle and the skin were sutured and disinfected with iodophor. After 14 days of modeling, the animals were divided into different groups, 10 animals each group. Different compounds were separately orally administered intragastrically. Mechanical pain thresholds of the animals were detected with Von-Frey fiber filaments at different time points after administration. The specific administration dose and detection time are detailed in Table 3 below.
as §1

| Compound | IC50 (Nav1.8 ion channel) | Mechanical pain threshold (Mean ± SD), base value before modeling (incision pain model rats; 100 mpk group) | Mechanical pain threshold (Mean ± SD), 1 h after administration (incision pain model rats; 100 mpk oral intragastric) | Mechanical pain threshold (Mean ± SD), 3 h after administration (incision pain model rats; 100 mpk oral intragastric) | Mechanical pain threshold (Mean ± SD), 6 h after administration (incision pain model rats; 100 mpk oral intragastric) | AUC(0-t) [1] | Cmax [1] | Tmax [1] | half-life [1] | Mechanical pain threshold (Mean ± SD), base value before modeling ([2]; 100 mpk group) | Mechanical pain threshold (Mean ± SD), 1 h after administration ([2]; 100 mpk oral intragastric) | Mechanical pain threshold (Mean ± SD), 3 h after administration ([2]; 100 mpk oral intragastric) | Mechanical pain threshold (Mean ± SD), base value before modeling (incision pain model rats; 30 mpk group) | Mechanical pain threshold (Mean ± SD), 1 h after administration (incision pain model rats; 30 mpk oral intragastric) | Mechanical pain threshold (Mean ± SD), 3 h after administration (incision pain model rats; 30 mpk oral intragastric) | Mechanical pain threshold (Mean ± SD), 6 h after administration (incision pain model rats; 30 mpk oral intragastric) | Mechanical pain threshold (Mean ± SD), base value before modeling ([2]; 30 mpk group) | Mechanical pain threshold (Mean ± SD), 1 h after administration ([2]; 30 mpk oral intragastric) | Mechanical pain threshold (Mean ± SD), 3 h after administration ([2]; 30 mpk oral intragastric) | Mechanical pain threshold (Mean ± SD), 6 h after administration ([2]; 30 mpk oral intragastric, 6 h) |
| --- | --- | --- | --- | --- | --- | --- | --- | --- | --- | --- | --- | --- | --- | --- | --- | --- | --- | --- | --- | --- |
| O=C(Nc1cnc[n+]([O-])c1)c1cc(Cl)c(Cl)cc1Oc1ccc(OC(F)(F)F)cc1 [Compound I-1, 5-(4,5-Dichloro-2-(4-(trifluoromethoxy)phenoxy)benzamido)pyrimidine 1-oxide] | 14 nM | 12.6 ± 1.7 g | 12.5 ± 1.9 g | 11.4 ± 2.0 g | 8.4 ± 1.2 g | 17300 ng·h/mL | 7370 ng/mL | 0.25 h | 2.74 h | 13.6 ± 1.7 g | 11.0 ± 4.0 g | 11.1 ± 3.7 g | – | – | – | – | – | – | – | – |
| CC(C)C[C@H](CN)CC(=O)O [Pregabalin, reference compound] | – | – | – | – | – | – | – | – | – | – | – | – | 12.7 ± 1.7 g | 12.4 ± 1.9 g | 11.6 ± 1.1 g | 11.3 ± 1.4 g | 13.6 ± 2.7 g | 13.8 ± 2.3 g | 12.3 ± 2.9 g | 12.1 ± 2.3 g |
